How the values were obtained:
BRD2 BD1 = target: T1, BRD2 BD1 (Homo sapiens, UniProt P25440); test: Binding assay, BRD2 BD1 to acetylated histone H4 Peptide-Biotin (EPIgeneous Binding Domain Kit A); conditions: test compound at 300 nmol/L; for inhibition at 0.3 µM: read-out: Binding inhibition percentage BRD2 BD1
T1 construct: BRD2 BD1, BRD3 BD1 and BRD4 BD1 (Cisbio); purchased Cisbio
Procedure: (§1) BRD2 BD1, BRD3 BD1 and BRD4 BD1 (Cisbio), [Lys(Ac)5/8/12/16]-Histone H4(1-25)-GSGSK (Biotin) (hereinafter referred to as “Peptide-Biotin,” AnaSpec), and EPIgeneous (registered trademark) Binding Domain Kit A (Cisbio) were used to carry out an assay. That is to say, per well, 4 μL of BRD2 BD1, BRD3 BD1 or BRD4 BD1, which was adjusted to 20 nmol/L with Diluent buffer; 4 μL of 25 nmol/L Peptide-Biotin; 2 μL of Dilution buffer (Cisbio) containing dimethyl sulfoxide (DMSO) or a test compound that was serially diluted with DMSO; 5 μL of 2.5 nmol/L Streptavidin-d2; and 5 μL of Anti-Gst-Eu+^3+ Cryptate Conjugate 50-fold diluted with Detection Buffer were added to a 384-well plate (Corning).
(§2) The obtained mixture was left at rest at room temperature for 20 hours, and thereafter, the fluoresence intensity at 665 nm and 620 nm was measured using Envision plate reader (Perkin Elmer), so that the inhibition percentage (%) of the test compound against the binding of a bromodomain in a bromodomain-containing protein to Peptide-Biotin was calculated. Binding inhibition percentage (%)=[1−{(fluorescence intensity at 665 nm of test compound−added well)/(fluorescence intensity at 620 nm of test compound−added well)}/{(fluorescence intensity at 665 nm of DMSO−added well)/(fluorescence intensity at 665 nm of DMSO−added well)}]×100
(§3) Moreover, using Graphpad prism 5 (GraphPad software), 50% inhibitory concentration [IC50 (nmol/L)] was calculated according to a non-linear regression analysis (log (inhibitor) vs. response—Variable slope (four parameters)).
(§4) Regarding other test compounds, each compound was diluted with DMSO to a final concentration of 300 nmol/L by the same method as that described above, and the binding inhibition percentage (%) of each test compound at 300 nmol/L against the binding of bromodomain in a bromodomain-containing protein to acetylated histone was calculated.

BRD2 BD2 = target: T2, BRD2 BD2 (Homo sapiens, UniProt P25440); test: Binding assay, BRD2 BD2 to acetylated histone H4 Peptide-Biotin (EPIgeneous Binding Domain Kit B); conditions: test compound at 300 nmol/L; for inhibition at 0.3 µM: read-out: Binding inhibition percentage BRD2 BD2
T2 construct: BRD2 BD2, BRD3 BD2 and BRD4 BD2 (Cisbio); purchased Cisbio
Procedure: (§5) Moreover, BRD2 BD2, BRD3 BD2 and BRD4 BD2 (Cisbio), Peptide-Biotin (AnaSpec), and EPIgeneous (registered trademark) Binding Domain Kit B (Cisbio) were used to carry out an assay. That is, per well, 4 μL of BRD2 BD2, BRD3 BD2 or BRD4 BD2, which was adjusted to 20 nmol/L with Diluent buffer; 4 μL of 250 nmol/L Peptide-Biotin; 2 μL of Dilution buffer (Cisbio) containing DMSO or a test compound that was serially diluted with DMSO; 5 μL of 25 nmol/L Streptavidin-XL665; 5 μL of Anti-Gst-Eu+^3+ Cryptate Conjugate 50-fold diluted with Detection Buffer were added to a 384-well plate (Corning).
as §2, §3, §4

BRD3 BD1 = target: T3, BRD3 BD1 (Homo sapiens, UniProt Q15059); test: Binding assay, BRD3 BD1 to acetylated histone H4 Peptide-Biotin (EPIgeneous Binding Domain Kit A); conditions: test compound at 300 nmol/L; for inhibition at 0.3 µM: read-out: Binding inhibition percentage BRD3 BD1
T3 construct: BRD2 BD1, BRD3 BD1 and BRD4 BD1 (Cisbio); purchased Cisbio
Procedure: as §1, §2, §3, §4

BRD3 BD2 = target: T4, BRD3 BD2 (Homo sapiens, UniProt Q15059); test: Binding assay, BRD3 BD2 to acetylated histone H4 Peptide-Biotin (EPIgeneous Binding Domain Kit B); conditions: test compound at 300 nmol/L; for inhibition at 0.3 µM: read-out: Binding inhibition percentage BRD3 BD2
T4 construct: BRD2 BD2, BRD3 BD2 and BRD4 BD2 (Cisbio); purchased Cisbio
Procedure: as §5, §2, §3, §4

BRD4 BD1 = target: T5, BRD4 BD1 (Homo sapiens, UniProt O60885); test: Binding assay, BRD4 BD1 to acetylated histone H4 Peptide-Biotin (EPIgeneous Binding Domain Kit A); conditions: test compound at 300 nmol/L; for inhibition at 0.3 µM: read-out: Binding inhibition percentage BRD4 BD1
T5 construct: BRD2 BD1, BRD3 BD1 and BRD4 BD1 (Cisbio); purchased Cisbio
Procedure: as §1, §2, §3, §4

BRD4 BD2 = target: T6, BRD4 BD2 (Homo sapiens, UniProt O60885); test: Binding assay, BRD4 BD2 to acetylated histone H4 Peptide-Biotin (EPIgeneous Binding Domain Kit B); conditions: test compound at 300 nmol/L; for inhibition at 0.3 µM: read-out: Binding inhibition percentage BRD4 BD2
T6 construct: BRD2 BD2, BRD3 BD2 and BRD4 BD2 (Cisbio); purchased Cisbio
Procedure: as §5, §2, §3, §4

T3 sequence (Q15059 34-140 limits assumed): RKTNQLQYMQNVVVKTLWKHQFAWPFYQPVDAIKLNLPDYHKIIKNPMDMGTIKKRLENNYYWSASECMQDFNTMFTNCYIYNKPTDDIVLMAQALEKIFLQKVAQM
T2 sequence (P25440 344-453 limits assumed): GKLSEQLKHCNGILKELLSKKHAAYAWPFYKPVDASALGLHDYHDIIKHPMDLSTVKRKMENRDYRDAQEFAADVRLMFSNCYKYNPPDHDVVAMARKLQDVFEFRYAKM
T1 sequence (P25440 74-180 limits assumed): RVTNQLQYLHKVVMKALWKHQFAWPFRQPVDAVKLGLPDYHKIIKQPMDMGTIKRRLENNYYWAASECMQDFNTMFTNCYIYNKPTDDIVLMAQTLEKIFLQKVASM
T4 sequence (Q15059 306-415 limits assumed): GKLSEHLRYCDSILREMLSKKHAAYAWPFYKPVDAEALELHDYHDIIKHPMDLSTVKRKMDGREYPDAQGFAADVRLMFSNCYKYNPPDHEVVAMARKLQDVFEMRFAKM

| Compound | inhibition at 0.3 µM (BRD2 BD1) | inhibition at 0.3 µM (BRD2 BD2) | inhibition at 0.3 µM (BRD3 BD1) | inhibition at 0.3 µM (BRD3 BD2) | inhibition at 0.3 µM (BRD4 BD1) | inhibition at 0.3 µM (BRD4 BD2) | Binding inhibition percentage BRD2 BD1 (BRD2 BD1) | Binding inhibition percentage BRD2 BD2 (BRD2 BD2) | Binding inhibition percentage BRD3 BD1 (BRD3 BD1) | Binding inhibition percentage BRD3 BD2 (BRD3 BD2) | Binding inhibition percentage BRD4 BD1 (BRD4 BD1) | Binding inhibition percentage BRD4 BD2 (BRD4 BD2) |
| --- | --- | --- | --- | --- | --- | --- | --- | --- | --- | --- | --- | --- |
| CCn1c(=O)cc(C2CCC(O)CC2)c2cc(C(=O)N(C)c3ccc(Cl)cc3)ccc21 (stereo not drawn) [Example 286, N-(4-chlorophenyl)-1-ethyl-4-(4-hydroxycyclohexyl)-N-methyl-2-oxo-1,2-dihydroquinoline-6-carboxamide] | 91% | 89% | 94% | 93% | 95% | 89% | – | – | – | – | – | – |
| CCn1c(=O)cc(C2CCN(C)CC2)c2cc(C(=O)N(C)c3ccc(C)c(F)c3)ccc21 [Example 292, 1-ethyl-N-(3-fluoro-4-methylphenyl)-N-methyl-4-(1-methylpiperidin-4-yl)-2-oxo-1,2-dihydroquinoline-6-carboxamide] | 93% | 81% | 94% | 87% | 95% | 85% | – | – | – | – | – | – |
| CCn1c(=O)cc(C2CC2)c2cc(-n3c(-c4ccc(Cl)cc4)cn(C)c3=O)ccc21 [Example 269, 6-(5-(4-chlorophenyl)-3-methyl-2-oxo-2,3-dihydro-1H-imidazol-1-yl)-4-cyclopropyl-1-ethylquinolin-2(1H)-one] | 36% | 85% | 58% | 92% | 71% | 87% | – | – | – | – | – | – |
| CCn1c(=O)cc(C2CC2)c2cc(-n3c(-c4ccc(C(F)(F)F)cc4)cn(C)c3=O)ccc21 [Example 267, 4-cyclopropyl-1-ethyl-6-(3-methyl-2-oxo-5-(4-(trifluoromethyl)phenyl)-2,3-dihydro-1H-imidazol-1-yl)quinolin-2(1H)-one] | 32% | 87% | 53% | 90% | 68% | 87% | – | – | – | – | – | – |
| CCn1c(=O)cc(C(C)C)c2cc(N(C)C(=O)c3ccc(Cl)cc3)ccc21 [Example 16, 4-Chloro-N-(1-ethyl-2-oxo-4-(propan-2-yl)-1,2-dihydroquinolin-6-yl)-N-methylbenzamide] | 44% | 87% | 79% | 92% | 70% | 88% | – | – | – | – | – | – |
| CCn1c(=O)cc(C2CC2)c2cc(-n3c(-c4ccc(C(F)(F)F)cc4)c[nH]c3=O)ccc21 [Example 268, 4-cyclopropyl-1-ethyl-6-(2-oxo-5-(4-(trifluoromethyl)phenyl)-2,3-dihydro-1H-imidazol-1-yl)quinolin-2(1H)-one] | 48% | 86% | 62% | 92% | 73% | 87% | – | – | – | – | – | – |
| CCn1c(=O)cc(C2CCN(C)CC2)c2cc(C(=O)N(C)c3ccc(C)c(Cl)c3)ccc21 [Example 293, N-(3-chloro-4-methylphenyl)-1-ethyl-N-methyl-4-(1-methylpiperidin-4-yl)-2-oxo-1,2-dihydroquinoline-6-carboxamide] | 94% | 88% | 93% | 90% | 94% | 87% | – | – | – | – | – | – |
| CCC1C(=O)N(c2ccccc2)N(c2ccc3c(c2)c(C2CC2)cc(=O)n3CC)C1=O (stereo not drawn) [Example 281, 1-(4-cyclopropyl-1-ethyl-2-oxo-1,2-dihydroquinolin-6-yl)-4-ethyl-2-phenylpyrazolidine-3,5-dione] | 87% | 89% | 92% | 91% | 94% | 88% | – | – | – | – | – | – |

The remaining lines, values ahead:

| inhibition at 0.3 µM (BRD2 BD1) | inhibition at 0.3 µM (BRD2 BD2) | inhibition at 0.3 µM (BRD3 BD1) | inhibition at 0.3 µM (BRD3 BD2) | inhibition at 0.3 µM (BRD4 BD1) | inhibition at 0.3 µM (BRD4 BD2) | Binding inhibition percentage BRD2 BD1 (BRD2 BD1) | Binding inhibition percentage BRD2 BD2 (BRD2 BD2) | Binding inhibition percentage BRD3 BD1 (BRD3 BD1) | Binding inhibition percentage BRD3 BD2 (BRD3 BD2) | Binding inhibition percentage BRD4 BD1 (BRD4 BD1) | Binding inhibition percentage BRD4 BD2 (BRD4 BD2) | Compound |
| --- | --- | --- | --- | --- | --- | --- | --- | --- | --- | --- | --- | --- |
| 71% | 88% | 89% | 92% | 91% | 87% | – | – | – | – | – | – | CCn1c(=O)cc(C2CC2)c2cc(-n3c(C)cc(=O)n3-c3ccccc3)ccc21 [Example 282b, 4-Cyclopropyl-1-ethyl-6-(5-methyl-3-oxo-2-phenyl-2,3-dihydro-1H-pyrazol-1-yl)quinolin-2(1H)-one] |
| 91% | 88% | 93% | 91% | 93% | 89% | – | – | – | – | – | – | CCn1c(=O)cc(N2CCOCC2)c2cc(-c3cccnc3-c3ccccc3)ccc21 [Example 279, 1-ethyl-4-(morpholin-4-yl)-6-(2-phenylpyridin-3-yl)quinolin-2(1H)-one] |
| – | – | – | – | – | – | 94% | 90% | 94% | 91% | 95% | 89% | CCn1c(=O)cc(C2CC2)c2cc(-n3c(=O)cc(C)n3-c3ccccc3)ccc21 [Example 282a, 4-Cyclopropyl-1-ethyl-6-(3-methyl-5-oxo-2-phenyl-2,5-dihydro-1H-pyrazol-1-y 1)quinolin-2(1H)-one] |
| 91% | 89% | 95% | 92% | 94% | 87% | – | – | – | – | – | – | CCCn1cc(-c2ccccc2)n(-c2ccc3c(c2)c(N2CCOCC2)cc(=O)n3CC)c1=O [Example 265, 1-ethyl-4-(morpholin-4-yl)-6-(2-oxo-5-phenyl-3-propyl-2,3-dihydro-1H-imidazol-1-yl)quinolin-2(1H)-one] |
| 79% | 89% | 92% | 90% | 94% | 87% | – | – | – | – | – | – | CCn1c(=O)cc(N2CCOCC2)c2cc(-n3ccnc3-c3ccccc3)ccc21 [Example 255, 1-ethyl-4-(morpholin-4-yl)-6-(2-phenyl-1H-imidazol-1-yl)quinolin-2(1H)-one] |
| 89% | 86% | 93% | 88% | 94% | 85% | – | – | – | – | – | – | CCn1c(=O)cc(N2CCOCC2)c2cc(-c3cnn(C)c3-c3ccccc3)ccc21 [Example 18, 1-Ethyl-6-(1-methyl-5-phenyl-1H-pyrazol-4-yl)-4-(morpholin-4-yl)quinolin-2(1H)-one] |
| 93% | 79% | 94% | 67% | 94% | 74% | – | – | – | – | – | – | CCN1CCC(c2cc(=O)n(CC)c3ccc(C(=O)N(C)c4ccccc4)cc23)CC1 [Example 8, 1-ethyl-4-(1-ethylpiperidin-4-yl)-N-methyl-2-oxo-N-phenyl-1,2-dihydroquinoline-6-carboxamide] |
| 83% | 89% | 94% | 91% | 93% | 89% | – | – | – | – | – | – | CCn1c(=O)cc(C2CC2)c2cc(-c3cccnc3-c3ccccc3)ccc21 [Example 278, 4-cyclopropyl-1-ethyl-6-(2-phenylpyridin-3-yl)quinolin-2(1H)-one] |
| 68% | 86% | 87% | 92% | 90% | 87% | – | – | – | – | – | – | CCn1c(=O)cc(C2CC2)c2cc(-c3nc(C)[nH]c3-c3ccccc3)ccc21 [Example 283, 4-cyclopropyl-1-ethyl-6-(2-methyl-5-phenyl-1H-imidazol-4-yl)quinolin-2(1H)-one] |
